Results reported in PubChem BioAssay AID248 (DTP/NCI, 2004).
“And” between values parts separate entries of the source, which are not always exact repeats. Equal values may be shown once. Toxic doses and inconclusive results are not listed.

Test system: L1210 leukemia ip in BDF1 mice, survival T/C
Assay: NCI In Vivo Anticancer Drug Screen. Data for tumor model L1210 Leukemia (intraperitoneal) in B6D2F1 (BDF1) mice
Settings: endpoint: mean survival time, higher = longer survival
Procedure, shortened: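 In this screen, tumor-bearing mice given compound are compared to those given vehicle, and their survival values are reported as a treated-to-control quotient.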

[1] = dose: 100.0 mg/kg/injection, schedule: Q04DX003 (ip), vehicle: saline
[2] = dose: 200.0 mg/kg/injection, schedule: Q04DX003 (ip), vehicle: saline
[3] = dose: 400.0 mg/kg/injection, schedule: Q04DX003 (ip), vehicle: saline
[4] = dose: 100.0 mg/kg/injection, schedule: Q04DX002 (ip), vehicle: saline with Tween-80
[5] = dose: 200.0 mg/kg/injection, schedule: Q04DX002 (ip), vehicle: saline with Tween-80
[6] = dose: 100.0 mg/kg/injection, schedule: Q01DX001 (ip), vehicle: saline
[7] = dose: 200.0 mg/kg/injection, schedule: Q01DX001 (ip), vehicle: carboxymethylcellulose (CMC)
[8] = dose: 100.0 mg/kg/injection, schedule: Q04DX003 (ip), vehicle: Klucel (hydroxypropylcellulose) (HPC)
[9] = dose: 200.0 mg/kg/injection, schedule: Q04DX003 (ip), vehicle: Klucel (hydroxypropylcellulose) (HPC)
[10] = dose: 400.0 mg/kg/injection, schedule: Q04DX003 (ip), vehicle: Klucel (hydroxypropylcellulose) (HPC)
[11] = dose: 100.0 mg/kg/injection, schedule: Q01DX009 (ip), vehicle: saline with Tween-80
[12] = dose: 200.0 mg/kg/injection, schedule: Q01DX009 (ip), vehicle: saline with Tween-80
[13] = dose: 400.0 mg/kg/injection, schedule: Q01DX009 (ip), vehicle: saline with Tween-80

With C[CH2][Hg][S]c1nsc([S][Hg][CH2]C)n1 the T/C (dose: 1.56 mg/kg/injection, schedule: Q01DX009 (ip), vehicle: Klucel (hydroxypropylcellulose) (HPC)) was 110 % of control, the T/C (dose: 3.12 mg/kg/injection, schedule: Q01DX009 (ip), vehicle: Klucel (hydroxypropylcellulose) (HPC)) was 119 % of control and the T/C (dose: 6.25 mg/kg/injection, schedule: Q01DX009 (ip), vehicle: Klucel (hydroxypropylcellulose) (HPC)) was 121 % of control. The T/C (dose: 12.5 mg/kg/injection, schedule: Q01DX009 (ip), vehicle: Klucel (hydroxypropylcellulose) (HPC)) was 117 % of control and the T/C (dose: 25.0 mg/kg/injection, schedule: Q01DX009 (ip), vehicle: Klucel (hydroxypropylcellulose) (HPC)) was 100 % of control.
With CC(C)NNC(=O)c1ccc(N)cc1 the T/C [1] was 105 % of control, the T/C [2] was 113 % of control and the T/C [3] was 108 % of control.
With CC12CCc3occc3C1CCC13CC(CO)C(O)(CCC12)C3 (stereo not drawn) the T/C [1] was 94 % of control and the T/C [2] was 93 % of control.
In the case of Cc1ccnc2c([N+](=O)[O-])cccc12, the T/C (dose: 75.0 mg/kg/injection, schedule: Q01DX001 (ip), vehicle: other) is reported as 102 % of control, the T/C [4] is reported as 103 % of control and the T/C (dose: 150.0 mg/kg/injection, schedule: Q01DX001 (ip), vehicle: other) is reported as 102 % of control. The T/C [5] was 109 % of control and the T/C (dose: 300.0 mg/kg/injection, schedule: Q01DX001 (ip), vehicle: other) was 103 % of control.
In the case of CS/C([S-])=N/[NH-].CS/C([S-])=N/[NH-].[Pd], the T/C (dose: 3.13 mg/kg/injection, schedule: Q01DX009 (ip), vehicle: saline with Tween-80) is reported as 98 % of control, the T/C (dose: 6.25 mg/kg/injection, schedule: Q01DX009 (ip), vehicle: saline with Tween-80) is reported as 100 % of control and the T/C (dose: 12.5 mg/kg/injection, schedule: Q01DX009 (ip), vehicle: saline with Tween-80) is reported as 89 % of control.
With CN(Cc1cnc2nc(N)nc(N)c2n1)c1ccc(C(=O)NC(CCC(=O)O)C(=O)O)c(Cl)c1 (stereo not drawn) the T/C (dose: 25.0 mg/kg/injection, schedule: Q01DX009 (ip), vehicle: sodium bicarbonate) was 154 % of control.
With COc1ccc(CCN(CCO)CCNS(=O)(=O)c2ccc(C)cc2)cc1 the T/C (dose: 100.0 mg/kg/injection, schedule: Q01DX001 (ip), vehicle: water) was 98 % of control, the T/C (dose: 200.0 mg/kg/injection, schedule: Q01DX001 (ip), vehicle: water) was 107 % of control and the T/C (dose: 400.0 mg/kg/injection, schedule: Q01DX001 (ip), vehicle: water) was 107 % of control.
O=C(O)c1nccc2c(O)cccc12 was tested, and the T/C [1] was 93 % of control, the T/C [2] was 102 % of control and the T/C [3] was 101 % of control.
N#CCCOc1ccccc1 was tested, and the T/C [6] was 108 % of control, the T/C (dose: 200.0 mg/kg/injection, schedule: Q01DX001 (ip), vehicle: saline) was 108 % of control and the T/C (dose: 400.0 mg/kg/injection, schedule: Q01DX001 (ip), vehicle: saline) was 104 % of control.
CCOc1cc(/C=N\NC(=O)CCCC(=O)N/N=C/c2ccc(O)c(OCC)c2)ccc1O was tested, and the T/C [7] was 95 % of control.
In the case of COc1ccc2c(c1)NCc1c(Br)cc(Br)cc1C2=O, the T/C (dose: 100.0 mg/kg/injection, schedule: Q01DX009 (ip), vehicle: saline) is reported as 94 % of control, the T/C (dose: 200.0 mg/kg/injection, schedule: Q01DX009 (ip), vehicle: saline) is reported as 93 % of control and the T/C (dose: 400.0 mg/kg/injection, schedule: Q01DX009 (ip), vehicle: saline) is reported as 91 % of control.
O=C1C=C(O)C(=O)C=C1O was tested, and the T/C (dose: 3.0 mg/kg/injection, schedule: Q01DX009 (ip), vehicle: saline) was 111 % of control, the T/C (dose: 5.0 mg/kg/injection, schedule: Q01DX001 (ip), vehicle: saline) was 103 % of control and the T/C (dose: 6.0 mg/kg/injection, schedule: Q01DX009 (ip), vehicle: saline) was 98 % of control. For the same compound, the T/C (dose: 10.0 mg/kg/injection, schedule: Q01DX001 (ip), vehicle: saline) was 101 % of control, the T/C (dose: 10.0 mg/kg/injection, schedule: Q01DX009 (ip), vehicle: saline with Tween-80) was 100 % of control and the T/C (dose: 12.0 mg/kg/injection, schedule: Q01DX009 (ip), vehicle: saline) was 103 % of control. The T/C (dose: 12.5 mg/kg/injection, schedule: Q04DX002 (ip), vehicle: saline) was 105 % of control and 92 % of control, the T/C (dose: 12.5 mg/kg/injection, schedule: Q04DX003 (ip), vehicle: saline) was 90 % of control and the T/C (dose: 20.0 mg/kg/injection, schedule: Q01DX001 (ip), vehicle: saline) was 98 % of control. The T/C (dose: 25.0 mg/kg/injection, schedule: Q04DX002 (ip), vehicle: saline) was 94 % of control, the T/C (dose: 40.0 mg/kg/injection, schedule: Q01DX009 (ip), vehicle: saline with Tween-80) was 92 % of control and the T/C (dose: 50.0 mg/kg/injection, schedule: Q04DX002 (ip), vehicle: saline) was 108 % of control.
In the case of O=C(CCc1ccc(N(CCCl)CCCl)cc1)NC1CCCC1, the T/C [8] is reported as 116 % of control, the T/C [9] is reported as 115 % of control and the T/C [10] is reported as 115 % of control.
For CCc1ccccc1NC(=O)Nc1cccc(O)c1, the T/C [11] was 100 % of control, the T/C [12] was 89 % of control and the T/C [13] was 94 % of control.
With N#C/C(=C\C1CC(Br)CC(Br)C1O)C1CCC([N+](=O)[O-])CC1 (stereo not drawn) the T/C [4] was 90 % of control, the T/C [5] was 90 % of control and the T/C (dose: 400.0 mg/kg/injection, schedule: Q04DX002 (ip), vehicle: saline with Tween-80) was 93 % of control.
With O=C(O)C[P+](c1ccccc1)(c1ccccc1)c1ccccc1 the T/C (dose: 50.0 mg/kg/injection, schedule: Q01DX001 (ip), vehicle: saline) was 106 % of control and the T/C [6] was 112 % of control.
N#CCCP(=S)(c1ccccc1)c1ccccc1 was tested, and the T/C (dose: 100.0 mg/kg/injection, schedule: Q01DX001 (ip), vehicle: other) was 104 % of control, the T/C (dose: 100.0 mg/kg/injection, schedule: Q04DX003 (ip), vehicle: other) was 102 % of control and the T/C (dose: 200.0 mg/kg/injection, schedule: Q01DX001 (ip), vehicle: other) was 98 % of control. For the same compound, the T/C (dose: 200.0 mg/kg/injection, schedule: Q04DX003 (ip), vehicle: other) was 96 % of control, the T/C (dose: 400.0 mg/kg/injection, schedule: Q01DX001 (ip), vehicle: other) was 102 % of control and the T/C (dose: 400.0 mg/kg/injection, schedule: Q04DX003 (ip), vehicle: other) was 90 % of control.
In the case of CN1C(c2ccccc2)=CN(Cc2ccccc2)C=C1c1ccccc1, the T/C (dose: 50.0 mg/kg/injection, schedule: Q04DX002 (ip), vehicle: Klucel (hydroxypropylcellulose) (HPC)) is reported as 103 % of control, the T/C (dose: 100.0 mg/kg/injection, schedule: Q04DX002 (ip), vehicle: Klucel (hydroxypropylcellulose) (HPC)) is reported as 100 % of control and the T/C (dose: 200.0 mg/kg/injection, schedule: Q04DX002 (ip), vehicle: Klucel (hydroxypropylcellulose) (HPC)) is reported as 97 % of control.
CCOc1ccc(NC(=O)Nc2ccccc2OC)cc1 was tested, and the T/C (dose: 100.0 mg/kg/injection, schedule: Q01DX009 (ip), vehicle: Klucel (hydroxypropylcellulose) (HPC)) was 97 % of control, the T/C [8] was 94 % of control and the T/C (dose: 200.0 mg/kg/injection, schedule: Q01DX009 (ip), vehicle: Klucel (hydroxypropylcellulose) (HPC)) was 95 % of control. The T/C [9] was 92 % of control, the T/C (dose: 400.0 mg/kg/injection, schedule: Q01DX009 (ip), vehicle: Klucel (hydroxypropylcellulose) (HPC)) was 101 % of control and the T/C [10] was 97 % of control.
In the case of O=C(Nc1cccc(F)c1)Nc1cc(C(F)(F)F)ccc1Cl, the T/C (dose: 50.0 mg/kg/injection, schedule: Q01DX009 (ip), vehicle: saline with Tween-80) is reported as 96 % of control, the T/C [11] is reported as 95 % of control and 97 % of control and the T/C [12] is reported as 96 % of control. For the same compound, the T/C [13] was 88 % of control.
With O=C(O)c1cc(C(=O)Nc2ccc(C3=NCCN3)cc2)c(C(=O)O)cc1C(=O)Nc1ccc(C2=NCCN2)cc1 the T/C (dose: 15.0 mg/kg/injection, schedule: Q01DX Z (ip), vehicle: carboxymethylcellulose (CMC)) was 95 % of control, the T/C (dose: 30.0 mg/kg/injection, schedule: Q01DX Z (ip), vehicle: carboxymethylcellulose (CMC)) was 98 % of control and the T/C (dose: 60.0 mg/kg/injection, schedule: Q01DX Z (ip), vehicle: carboxymethylcellulose (CMC)) was 101 % of control. The T/C (dose: 120.0 mg/kg/injection, schedule: Q01DX Z (ip), vehicle: carboxymethylcellulose (CMC)) was 95 % of control.
With O=C(/C=C(\CN1CCCCC1)c1ccccc1)c1ccccc1 the T/C [8] was 96 % of control and the T/C [10] was 96 % of control.
In the case of Oc1c2ccccc2cc2cnc3ccccc3c12, the T/C (dose: 100.0 mg/kg/injection, schedule: Q01DX001 (ip), vehicle: carboxymethylcellulose (CMC)) is reported as 107 % of control, the T/C [7] is reported as 103 % of control and the T/C (dose: 400.0 mg/kg/injection, schedule: Q01DX001 (ip), vehicle: carboxymethylcellulose (CMC)) is reported as 94 % of control.
